This is an account of results in patent US11980594B2, “Composition and method for treating a drug-resistant cancer” (NOVELWISE PHARMACEUTICAL CORPORATION, priority 2021, dated 2024).

SMILES strings stand for the structures. Where two headings read alike, the source gives them in different places. Some results are limits rather than exact numbers.

Assay [1] concerns A172 cells. The assay is described as follows: Cell proliferation/viability assay (CCK8 kit; text says MTT), A172. The format is cell-based. Particulars: Homo sapiens, A 172, single agent, FIG. 2B/2C, read-out: IC50 values (alone). From the text: (§1) Four GBM cell lines U87, U87R, A172, and A172R were used in this study. The American Type Culture Collection (ATCC; Manassas, Va., USA) provided human GBM cell lines U87-MG (ATCC HTB-14; GBM of unknown origin) and A172 (ATCC CRL-1620; ATCC). U87R and A172R cells were obtained from Dr. Tsung-I Hsu and Dr. Jian-Ying Chung (The Ph.D. Program for Neural Regenerative Medicine, College of Medical Science and Technology, Taipei Medical University, Taipei, Taiwan). These cells were maintained in Dulbecco's modified Eagle medium (DMEM) with 10% fetal bovine serum (FBS) and 50 μM TMZ for at least 60 days. TMZ resistance in U87R and A172R cells was confirmed using the colony formation assay (FIG. 11). Cells were cultured in DMEM supplemented with 10% FBS, 100 U/mL penicillin, […] streptomycin (all from Gibco; Thermo Fisher Scientific, Waltham, Mass., USA) and maintained in a humidified incubator at 37° C. and 5% CO2. NBM-BMX (BMX), (E)-2-(4-Methoxybenzyloxy)-3-prenyl-4-methoxy-N-hydroxycinamide, was provided by NatureWise Biotech & Medicals Corporation (Taipei, Taiwan).
(§2) We plated 3000 GBM cells per well in 96-well plates and allowed them to adhere overnight. […] Following treatment, the absorption value was measured using a CCK8 kit (Targetmol, Shanghai, China) at the indicated time points. […]
A general note: Tetrazolium assays rely on reduction of a dye to a coloured formazan, in cell work by metabolically active cells.

Assay [2] relates to A172-R cells. Nature of the assay: Cell proliferation/viability assay (CCK8 kit; text says MTT), A172-R. The assay is classed as cell-based. Particulars: Homo sapiens; A172-R cells (TMZ-resistant); single agent; FIG. 2B/2C; read-out: IC50 values (alone).
Text: as §1, §2

Assay [3] concerns U87MG cells. Nature of the assay: Cell proliferation/viability assay (CCK8 kit; text says MTT), U87MG. Particulars: Homo sapiens, U-87 MG, single agent, FIG. 2B/2C, read-out: IC50 values (alone). The assay is classed as cell-based.
Text: as §1, §2

The test system of assay [4] is U87MG-R cells. Nature of the assay: Cell proliferation/viability assay (CCK8 kit; text says MTT), U87MG-R. The assay is classed as cell-based. Particulars: Homo sapiens; U87MG-R cells (TMZ-resistant); single agent; FIG. 2B/2C; read-out: IC50 values (alone).
Text: as §1, §2

In assay [5] the test system is HT29 cells. The assay is described as follows: CRC cell proliferation assay (CCK8), HT29. The assay is classed as cell-based. Particulars: Homo sapiens. How it is done: (§3) Three CRC cell lines HT29, HCT116 and RKO were used in this study. The American Type Culture Collection (ATCC; Manassas, Va., USA) provided human CRC cell lines HT29 (ATCC HTB-38; mutant TP53, p.R273H; APC frame shift, p. E1554fs; wild type β-catenin), HCT116 (ATCC CCL-247; wild type TP53; wild type APC; deletion β-catenin, p. S45del) and RKO (ATCC CRL-2577; wild type TP53; wild type APC; wild type β-catenin). Three CRC cells lines as listed above were cultured in adherent culture condition, maintained at 37° C. inside the cell incubation containing 5% CO2. The two cell lines of HCT-116 and HT-29 cells were cultured in McCoy's 5A medium with supplemented 10% fetal bovine serum (Gibco; Thermo Fischer Scientific, Grand Island, N.Y., USA)), 1% penicillin and 1% streptomycin. RKO cell was cultured in MEM medium with supplemented 10% FBS, 1% penicillin, 1% streptomycin and 1% sodium pyruvate. The cell cultures were passaged by trypsinization every three days. BM-BMX (BMX), (E)-2-(4-Methoxybenzyloxy)-3-prenyl-4-methoxy-N-hydroxycinamide, was provided by Nature Wise Biotech & Medicals Corporation (Taipei, Taiwan).
(§4) We plated 4000 CRC cells per well in 96-well plates and allowed them to adhere overnight. To validate cell line responsiveness to BMX and TMZ monotherapy, the cells were treated with different doses of BMX or TMZ for 24, 48, and 72 hrs. To confirm cell responsiveness to the BMX-TMZ combination, cells were either treated with different doses of TMZ ([…]) with or without BMX (5 μM) for 24, 48, and 72 hrs or with different doses of BMX (0-10 μM) with or without TMZ (50 μM) for 24, 48, and 72 hrs. Following treatment, the absorption value was measured using a CCK8 kit (Targetmol, Shanghai, China) at the indicated time points. The results are reported as the mean±standard deviation of at least three replicates.

The test system of assay [6] is HCT116 cells. The assay is described as follows: CRC cell proliferation assay (CCK8), HCT116. The format is cell-based. Particulars: Homo sapiens. As for the experimental part: as §3, §4
Assay [7] has as its system RKO cells. The assay is described as follows: CRC cell proliferation assay (CCK8), RKO. Particulars: Homo sapiens. The assay is classed as cell-based. As for the experimental part: as §3, §4
For assay [8], the system named is MGMT. Nature of the assay: Western blot of MGMT in GBM-R cells. The assay is classed as cell-based, human. Particulars: A172-R and U87MG-R cells; 50 μM TMZ without or with 5 and 10 μM BMX; 48 hrs; FIG. 5B, 5C. How it is done:
The cells were collected and lysed in RIPA lysis buffer (EMD Millipore Billerica, Mass., USA, 10×RIPA buffer) containing a protease inhibitor. Protein concentration was determined using a protein assay kit (Bio-Rad Laboratories, Hercules, Calif., USA). The SDS loading buffer was mixed with the protein samples. Proteins (20 μg/lane) were separated using 8%-12% SDS-PAGE and transferred to a PVDF membrane, which was blocked with 5% bovine serum albumin at room temperature for 1 hr in tris-buffered saline (TBS)-Tween 20 (0.5%; TBS-T), incubated with primary antibodies overnight at […], and then incubated with horseradish peroxidase (HRP)-conjugated secondary antibodies at room temperature for 1 hr. After washing thoroughly with TBS-T, the HRP signals were detected with a chemical HRP substrate. Signal of each target protein was visualized by incubation with an enhanced chemiluminescent reagent and exposure to X-ray film.
In general terms: In western blotting, separated proteins are transferred to a membrane and probed.

Take `COc1ccc(COc2c(/C=C/C(=O)NO)ccc(OC)c2CC=C(C)C)cc1` [BMX, (E)-2-(4-Methoxybenzyloxy)-3-prenyl-4-methoxy-N-hydroxycinamide]: the concentration for half-maximal inhibition (IC50) (as a rule, the concentration needed to halve the response being measured) in assay [1] was 21 ± 2.34 µM; in assay [2], over 52.6 µM; in assay [3], 29.8 ± 2.32 µM; in assay [4] it was over 68.1 µM; in assay [5] (HT-29, 24 h, BMX alone, 24 hrs, read-out: IC50 of BMX), 42.6 ± 2.4 µM; in assay [5] (HT-29, 24 h, TMZ 50 μM combined with different concentrations of BMX, 24 hrs, read-out: IC50 of BMZ), over 10 µM. In addition, the IC50 in assay [5] (HT-29, 48 h, BMX alone, 48 hrs, read-out: IC50 of BMX) is 9.9 ± 0.5 µM; in assay [5] (HT-29, 48 h, TMZ 50 μM combined with different concentrations of BMX, 48 hrs, read-out: IC50 of BMZ), 9.1 ± 0.2 µM; in assay [5] (HT-29, 72 h, BMX alone, 72 hrs, read-out: IC50 of BMX) it was 2.9 ± 0.2 µM; in assay [5] (HT-29, 72 h, TMZ 50 μM combined with different concentrations of BMX, 72 hrs, read-out: IC50 of BMZ) it was 2.2 ± 0.1 µM; in assay [6] (HCT-116, 24 h, BMX alone, 24 hrs, read-out: IC50 of BMX), 24.8 ± 2.5 µM; in assay [6] (HCT-116, 24 h, TMZ 50 μM combined with different concentrations of BMX, 24 hrs, read-out: IC50 of BMZ), over 10 µM. For the same molecule, the IC50 in assay [6] (HCT-116, 48 h, BMX alone, 48 hrs, read-out: IC50 of BMX) is 7.7 ± 0.3 µM; in assay [6] (HCT-116, 48 h, TMZ 50 μM combined with different concentrations of BMX, 48 hrs, read-out: IC50 of BMZ) it was 3.2 ± 0.3 µM; in assay [6] (HCT-116, 72 h, BMX alone, 72 hrs, read-out: IC50 of BMX) it was 1.5 ± 0.3 µM; in assay [6] (HCT-116, 72 h, TMZ 50 μM combined with different concentrations of BMX, 72 hrs, read-out: IC50 of BMZ), 0.9 ± 0.1 µM; in assay [7] (24 h, BMX alone, 24 hrs, read-out: IC50 of BMX), 38.5 ± 3.5 µM; in assay [7] (24 h, TMZ 50 μM combined with different concentrations of BMX, 24 hrs, read-out: IC50 of BMZ), over 10 µM. For the same molecule, the IC50 in assay [7] (48 h, BMX alone, 48 hrs, read-out: IC50 of BMX) came to 7.2 ± 0.6 µM; in assay [7] (48 h, TMZ 50 μM combined with different concentrations of BMX, 48 hrs, read-out: IC50 of BMZ), 3.6 ± 0.4 µM; in assay [7] (72 h, BMX alone, 72 hrs, read-out: IC50 of BMX) it was 1.5 ± 0.2 µM; in assay [7] (72 h, TMZ 50 μM combined with different concentrations of BMX, 72 hrs, read-out: IC50 of BMZ) it was 0.9 ± 0.1 µM. The MGMT expression result in assay [8] is “moderately decrease MGMT levels”.

Consider `Cn1nnc2c(C(N)=O)ncn2c1=O` [TMZ, Temozolomide, reference compound], for which the IC50 in assay [1] was 73.5 ± 3.65 µM; in assay [2] it was 595 ± 23.4 µM; in assay [3] it was 81 ± 1.68 µM; in assay [4], 303 ± 15.2 µM; in assay [5] (HT-29, 24 h, BMX 5 μM combined with different doses of TMZ, 24 hrs, read-out: IC50 of TMZ), over 400 µM; in assay [5] (HT-29, 24 h, TMZ alone, 24 hrs, read-out: IC50 of TMZ) it was over 1000 µM. Also, the IC50 in assay [5] (HT-29, 48 h, BMX 5 μM combined with different doses of TMZ, 48 hrs, read-out: IC50 of TMZ) was 128 ± 18.3 µM; in assay [5] (HT-29, 48 h, TMZ alone, 48 hrs, read-out: IC50 of TMZ), 931 ± 47.7 µM; in assay [5] (HT-29, 72 h, TMZ alone, 72 hrs, read-out: IC50 of TMZ), 258 ± 20.5 µM; in assay [6] (HCT-116, 24 h, BMX 5 μM combined with different doses of TMZ, 24 hrs, read-out: IC50 of TMZ) it was over 400 µM; in assay [6] (HCT-116, 24 h, TMZ alone, 24 hrs, read-out: IC50 of TMZ) it was over 1000 µM; in assay [6] (HCT-116, 48 h, BMX 5 μM combined with different doses of TMZ, 48 hrs, read-out: IC50 of TMZ), 41.6 ± 2.4 µM. The IC50 in assay [6] (HCT-116, 48 h, TMZ alone, 48 hrs, read-out: IC50 of TMZ) is 515 ± 21.6 µM; in assay [6] (HCT-116, 72 h, TMZ alone, 72 hrs, read-out: IC50 of TMZ), 192 ± 14.7 µM; in assay [7] (24 h, BMX 5 μM combined with different doses of TMZ, 24 hrs, read-out: IC50 of TMZ), over 400 µM; in assay [7] (24 h, TMZ alone, 24 hrs, read-out: IC50 of TMZ), over 1000 µM; in assay [7] (48 h, BMX 5 μM combined with different doses of TMZ, 48 hrs, read-out: IC50 of TMZ), 21.9 ± 2.7 µM; in assay [7] (48 h, TMZ alone, 48 hrs, read-out: IC50 of TMZ), 992 ± 52.4 µM. Besides, the IC50 in assay [7] (72 h, TMZ alone, 72 hrs, read-out: IC50 of TMZ) was 380 ± 40.3 µM. Moreover, in assay [8], the MGMT expression result is given as “moderately suppress MGMT expression”.
